According to US20120202856A1, “SUBSTITUTED BENZIMDAZOLE DERIVATIVES USEFUL AS TRPM8 RECEPTOR MODULATORS” (priority 2011, published 2012):
Where “and” joins values, the source holds several entries; their conditions need not be identical. Equal values may be shown once. Where a name gives a salt, the structure may show the parent alone.

Biological target: T1, canine TRPM8 (Canis lupus familiaris, UniProt Q1A7N1)
T1 construct: expressed in transfected cells
Assay: In Vitro Canine TRPM8 Functional Assay (intracellular Ca2+ fluorescence, icilin activation, HEK293 cells)
Type: cell-based
Conditions: for IC50: HEK293 cells expressing canine TRPM8, icilin activation, individually measured values (batches/salt forms), read-out: IC50 (nM), in vitro TRP M8 Activity
Procedure: The changes in fluorescent signal were monitored by a fluorescence plate reader, either a FLIPR™ (Molecular Devices) or FDSS (Hamamatsu). […] Cells were maintained in 5% CO2 at 37° C. At 24 hr prior to assay, cells were seeded in black wall, clear-base poly-D-lysine coated 384-well plates (BD Biosciences, NJ, USA) at a density of 5,000 cells per well in culture medium and grown overnight in 5% CO2 at 37° C. On assay day, growth media was removed, and cells were loaded with Calcium 3 Dye (Molecular Devices) for 35 min at 37° C., under 5% CO2 and then incubated for 25 min at room temperature and atmosphere. Subsequently, cells were tested for agonist-induced increases in intracellular Ca^2+ levels using FLIPR™ or FDSS. […] Maximal fluorescence intensity (FI) achieved upon addition of icilin was exported from the FLIPR™ or FDSS software and further analyzed using GraphPad Prism 3.02 (Graph Pad Software Inc., CA, U.S.A.). Basal FI was subtracted prior to normalizing data to percent of maximal response. Curves were generated using the average of quadruplicate wells for each data point using nonlinear regression of either sigmoidal dose response or sigmoidal dose response (variable slope). Finally, IC50 values were calculated with the best-fit curve determined by GraphPad Prism

T1 sequence (Q1A7N1 1-1104): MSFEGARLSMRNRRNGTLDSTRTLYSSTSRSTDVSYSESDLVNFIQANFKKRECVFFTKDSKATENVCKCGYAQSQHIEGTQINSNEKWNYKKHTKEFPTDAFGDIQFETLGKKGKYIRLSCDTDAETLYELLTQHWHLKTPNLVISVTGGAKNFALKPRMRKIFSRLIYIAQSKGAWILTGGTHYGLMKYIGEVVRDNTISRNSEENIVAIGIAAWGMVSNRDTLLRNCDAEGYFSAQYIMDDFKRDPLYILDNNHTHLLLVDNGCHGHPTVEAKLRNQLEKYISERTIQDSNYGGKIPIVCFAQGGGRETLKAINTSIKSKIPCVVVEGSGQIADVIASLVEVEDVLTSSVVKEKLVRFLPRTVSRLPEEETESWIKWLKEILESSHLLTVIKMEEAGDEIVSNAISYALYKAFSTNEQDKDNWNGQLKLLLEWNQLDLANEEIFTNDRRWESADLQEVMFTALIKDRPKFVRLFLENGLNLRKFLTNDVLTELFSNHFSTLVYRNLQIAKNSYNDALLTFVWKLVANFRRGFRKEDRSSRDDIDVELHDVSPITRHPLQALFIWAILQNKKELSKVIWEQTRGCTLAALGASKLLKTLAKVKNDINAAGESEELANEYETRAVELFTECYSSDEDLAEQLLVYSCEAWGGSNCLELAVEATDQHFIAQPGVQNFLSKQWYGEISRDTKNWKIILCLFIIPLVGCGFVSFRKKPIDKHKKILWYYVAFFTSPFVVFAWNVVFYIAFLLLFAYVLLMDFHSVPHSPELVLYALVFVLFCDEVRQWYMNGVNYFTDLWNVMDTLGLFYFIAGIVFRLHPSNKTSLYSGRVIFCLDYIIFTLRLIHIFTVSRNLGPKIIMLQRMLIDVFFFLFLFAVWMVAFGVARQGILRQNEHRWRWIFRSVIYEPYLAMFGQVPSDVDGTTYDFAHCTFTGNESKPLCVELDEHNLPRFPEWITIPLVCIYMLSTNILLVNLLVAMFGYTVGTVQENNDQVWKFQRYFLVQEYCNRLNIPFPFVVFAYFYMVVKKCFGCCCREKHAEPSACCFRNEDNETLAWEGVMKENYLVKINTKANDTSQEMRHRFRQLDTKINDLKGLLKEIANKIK

IC50 | inhibition at 0.2 µM (HEK293, 0.2 μM test compound, individually measured values, read-out: % Inh (%) @0.2 μM, in vitro TRP M8 Activity) [%] | SMILES
18.4 nM |  | CC(C)(C)c1cc(-c2nc3cc(-c4ccccc4C(F)(F)F)ccc3[nH]2)n(Cc2ccccc2)n1 [Compound 48, 2-(5-tert-Butyl-2-benzyl-2H-pyrazol-3-yl)-5-(2-trifluoromethylphenyl)-1H-benzimidazole sodium salt]
42.3 nM |  | CC(C)(C)c1cc(-c2nc3cc(-c4ccccc4OC(F)(F)F)ccc3[nH]2)n(Cc2ccccc2)n1 [Compound 49, 2-(5-tert-Butyl-2-benzyl-2H-pyrazol-3-yl)-5-(2-trifluoromethoxyphenyl)-1H-benzimidazole sodium salt]
27 nM |  | Cn1nc(C(C)(C)C)c(Cl)c1-c1nc2cc(-c3ccccc3OC(F)(F)F)ccc2[nH]1 [Compound 51, 2-(5-tert-Butyl-4-chloro-2-methyl-2H-pyrazol-3-yl)-5-(2-trifluoromethoxyphenyl)-1H-benzimidazole sodium salt]
17.6 nM |  | Cn1nc(C2(C)CC2)cc1-c1nc2cc(-c3ccccc3C(F)(F)F)ccc2[nH]1 [Compound 52, 2-[2-Methyl-5-(1-methylcyclopropyl)-2H-pyrazol-3-yl]-5-(2-trifluoromethylphenyl)-1H-benzimidazole sodium salt]
41.7 nM |  | Cn1nc(C2(C)CC2)cc1-c1nc2cc(-c3ccccc3OC(F)(F)F)ccc2[nH]1 [Compound 53, 2-[2-Methyl-5-(1-methylcyclopropyl)-2H-pyrazol-3-yl]-5-(2-trifluoromethoxyphenyl)-1H-benzimidazole sodium salt]
3.1 nM |  | COc1cccc(OC)c1-c1ccc2[nH]c(-c3cc(C(C)(C)C)nn3C)nc2c1 [Compound 54, 2-(5-tert-Butyl-2-methyl-2H-pyrazol-3-yl)-5-(2,6-dimethoxy-phenyl)-1H-benzimidazole trifluoroacetic acid salt]
5.5 nM |  | Cc1ccccc1-c1ccc2[nH]c(-c3cc(C(C)(C)C)nn3C)nc2c1 [Compound 55, 2-(5-tert-Butyl-2-methyl-2H-pyrazol-3-yl)-5-o-tolyl-1H-benzimidazole trifluoroacetic acid salt]
10.7 nM |  | CCc1ccccc1-c1ccc2[nH]c(-c3cc(C(C)(C)C)nn3C)nc2c1 [Compound 56, 2-(5-tert-Butyl-2-methyl-2H-pyrazol-3-yl)-5-(2-ethyl-phenyl)-1H-benzimidazole trifluoroacetic acid salt]
14.6 nM and 20.7 nM |  | Cn1nc(C(C)(C)C)cc1-c1nc2cc(-c3ccccc3F)ccc2[nH]1 [Compound 57, 2-(5-tert-Butyl-2-methyl-2H-pyrazol-3-yl)-5-(2-fluoro-phenyl)-1H-benzimidazole trifluoroacetic acid salt]
8.3 nM |  | Cn1nc(C(C)(C)C)cc1-c1nc2cc(-c3ccccc3Cl)ccc2[nH]1 [Compound 59, 2-(5-tert-Butyl-2-methyl-2H-pyrazol-3-yl)-5-(2-chloro-phenyl)-1H-benzimidazole trifluoroacetic acid salt]
11.9 nM |  | Cn1nc(C(C)(C)C)cc1-c1nc2cc(-c3ccccc3C#N)ccc2[nH]1 [Compound 60, 2-[2-(5-tert-Butyl-2-methyl-2H-pyrazol-3-yl)-1H-benzimidazol-5-yl]-benzonitrile trifluoroacetic acid salt]
5.5 nM |  | COc1cccc(OC)c1-c1ccc2[nH]c(-c3cc(C(C)(C)C)no3)nc2c1 [Compound 63, 2-(3-tert-Butyl-isoxazol-5-yl)-5-(2,6-dimethoxy-phenyl)-1H-benzimidazole trifluoroacetic acid salt]
8.7 nM |  | COc1cccc(F)c1-c1ccc2[nH]c(-c3cc(C(C)(C)C)no3)nc2c1 [Compound 64, 2-(3-tert-Butyl-isoxazol-5-yl)-5-(2-fluoro-6-methoxy-phenyl)-1H-benzimidazole trifluoroacetic acid salt]
15.5 nM |  | Cc1ccccc1-c1ccc2[nH]c(-c3cc(C(C)(C)C)no3)nc2c1 [Compound 65, 2-(3-tert-Butyl-isoxazol-5-yl)-5-o-tolyl-1H-benzimidazole trifluoroacetic acid salt]
24 nM and 35.7 nM |  | CC(C)(C)c1cc(-c2nc3cc(-c4ccccc4F)ccc3[nH]2)on1 [Compound 66, 2-(3-tert-Butyl-isoxazol-5-yl)-5-(2-fluoro-phenyl)-1H-benzimidazole trifluoroacetic acid salt]
15.3 nM and 16.7 nM |  | CC(C)(C)c1cc(-c2nc3cc(-c4c(F)cccc4F)ccc3[nH]2)on1 [Compound 67, 2-(3-tert-Butyl-isoxazol-5-yl)-5-(2,6-difluoro-phenyl)-1H-benzimidazole trifluoroacetic acid salt]
14.8 nM and 16.3 nM |  | CC(C)(C)c1cc(-c2nc3cc(-c4ccccc4Cl)ccc3[nH]2)on1 [Compound 68, 2-(3-tert-Butyl-isoxazol-5-yl)-5-(2-chloro-phenyl)-1H-benzimidazole trifluoroacetic acid salt]
20.5 nM |  | CC(C)(C)c1cc(-c2nc3cc(-c4ccccc4C#N)ccc3[nH]2)on1 [Compound 69, 2-[2-(3-tert-Butyl-isoxazol-5-yl)-1H-benzimidazol-5-yl]-benzonitrile trifluoroacetic acid salt]
134 nM |  | COc1cccc(F)c1-c1ccc2[nH]c(-c3cnc(C(C)(C)C)n3C)nc2c1 [Compound 70, 2-(2-tert-Butyl-3-methyl-3H-imidazol-4-yl)-5-(2-fluoro-6-methoxy-phenyl)-1H-benzimidazole trifluoroacetic acid salt]
2 nM and 7 nM |  | Cn1nc(C(C)(C)C)cc1-c1nc2cc(-c3ccccc3OC(F)F)ccc2[nH]1 [Compound 81, 2-(5-tert-Butyl-2-methyl-2H-pyrazol-3-yl)-5-(2-difluoromethoxyphenyl)-1H-benzimidazole hydrochloride]
11.6 nM and 1.8 nM |  | CC(C)(C)c1cc(-c2nc3cc(-c4c(F)cccc4C(F)(F)F)ccc3[nH]2)on1 [Compound 82, 2-(3-tert-Butyl-isoxazol-5-yl)-5-(2-fluoro-6-trifluoromethyl-phenyl)-1H-benzimidazole hydrochloride]
5.7 nM and 8.6 nM |  | Cn1nc(C(C)(C)C)c(Cl)c1-c1nc2cc(-c3c(C(F)(F)F)cccc3C(F)(F)F)ccc2[nH]1 [Compound 87, 5-(2,6-Bis-trifluoromethyl-phenyl)-2-(5-tert-butyl-4-chloro-2-methyl-2H-pyrazol-3-yl)-1H-benzimidazole hydrochloride]
3.6 nM and 9.7 nM |  | Cn1nc(C(C)(C)C)c(Cl)c1-c1nc2cc(-c3c(F)cccc3OC(F)(F)F)ccc2[nH]1 [Compound 88, 2-(5-tert-Butyl-4-chloro-2-methyl-2H-pyrazol-3-yl)-5-(2-fluoro-6-trifluoromethoxy-phenyl)-1H-benzimidazole hydrochloride]
 | 7 | Cn1nc(-c2nc3cc(-c4ccccc4C(F)(F)F)ccc3[nH]2)cc1C1CCC1 [Compound 91, 2-(5-Cyclobutyl-1-methyl-1H-pyrazol-3-yl)-5-(2-trifluoromethyl-phenyl)-1H-benzimidazole]
24.5 nM |  | FC(F)(F)c1ccccc1-c1ccc2[nH]c(-c3cc(C4CCCC4)no3)nc2c1 [Compound 92, 2-(3-Cyclopentylisoxazol-5-yl)-5-(2-trifluoromethylphenyl)-1H-benzimidazole]
10.9 nM |  | Cc1c(C(C)(C)C)nn(C)c1-c1nc2cc(-c3ccccc3F)ccc2[nH]1 [Compound 93, 2-(5-tert-Butyl-2,4-dimethyl-2H-pyrazol-3-yl)-5-(2-fluoro-phenyl)-1H-benzimidazole hydrochloride]
